Laboratory results from the supplement of paper PMC10949913.

Legend:
Settings in all cases: 48 h
CU-ACC1 [1] = test: AC50 viability; higher = less potent
In short: (§1)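 AC50 and area under the curve values derive from fitted concentration-response curves, restricted to inhibitory or non-responding curve classes. The curves came from three adrenocortical carcinoma cell lines in 1,536-well plates, each receiving 23 nL of every library compound at 11 concentrations. Viability was read by CellTiter-Glo luminescence after 48 h, normalised per plate to vehicle and empty-well controls.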

CU-ACC2 [2] = test: AC50 viability; higher = less potent
In short: as §1

NCI-H295R [3] = test: AC50 viability; higher = less potent
In short: as §1

CU-ACC1 [4] = test: area under concentration-response curve (viability) (AUC (a.u.)); higher = less active
In short: as §1

CU-ACC2 [5] = test: as above
In short: as §1

NCI-H295R [6] = test: as above
In short: as §1

Row | SMILES | AC50 viability (CU-ACC1 [1]) | AC50 viability (CU-ACC2 [2]) | AC50 viability (NCI-H295R [3]) | area under concentration-response curve (CU-ACC1 [4]) | area under concentration-response curve (CU-ACC2 [5]) | area under concentration-response curve (NCI-H295R [6])
1 | Cc1cc(C[S+](=O)([O-])c2ccccc2)cc(OCc2ccc(CN3CCC[C@@H]3CO)cc2)c1 | 14.8 µM | 20.9 µM | 26.3 µM | 428 | 463 | 425
2 | C[C@@]12C(=O)OC(=O)[C@]1(C)[C@H]1CC[C@@H]2O1 | 7.42 µM | 10.5 µM | 4.68 µM | 442 | 431 | 434
3 | COC(=O)C/1=C(C)/N/C(=C(\C1C2=CC(=CC=C2)[N+]([O-])=O)C(=O)OCCCN3CCC(CC3)(C4=CC=CC=C4)C5=CC=CC=C5)C (configuration not stated) | 13.2 µM | 16.6 µM | 7.42 µM | 426 | 374 | 465
4 | COc1cccc2c1C(=O)c1c(O)c3c(c(O)c1C2=O)C[C@@](O)(C(=O)CO)CC3OC1CC(N2CCOC(OC)C2)C(O)C(C)O1 (some centres not stated) | 0.0833 µM | 0.059 µM | 0.0833 µM | 284 | 302 | 282
5 | COc1cc(N2CCC(N3CCN(C)CC3)CC2)ccc1Nc1ncc(Cl)c(Nc2ccccc2[S+](=O)([O-])C(C)C)n1 | 11.8 µM | 5.25 µM | 2.95 µM | 436 | 479 | 432
6 | CC1(C)OC/2=C(\[C@H](NCC3=CC=CC=C3)[C@@H]1O)C(=O)C4=CC=CC=C4C2=O | 2.35 µM | 18.6 µM | 1.86 µM | 381 | 368 | 403
7 | CCN(CC)Cc1ccc2cc(COC(=O)Nc3ccc(C(=O)NO)cc3)ccc2c1 | 3.72 µM | 4.68 µM | 9.34 µM | 365 | 390 | 382
8 | COc1cccc2c1C(=O)c1c(O)c3c(c(O)c1C2=O)C[C@@](O)(C(=O)CO)C[C@@H]3O[C@H]1C[C@H](N)[C@@H](O)[C@H](C)O1 | 10.5 µM | 8.33 µM | 18.6 µM | 424 | 507 | 510
9 | CC(C)[C@]12O[C@H]1[C@@H]3O[C@@]34[C@@]5(C)CC\C6=C(COC6=O)/[C@@H]5C[C@@H]7O[C@]47C2=O | 0.0417 µM | 0.0525 µM | 0.833 µM | 245 | 270 | 329
10 | C1=CC2=N/C(=N\c3ccc(OCCN4CCCC4)c(c3)COC/C=C/COCc3cccc2c3)N1 | 3.72 µM | 2.63 µM | 4.17 µM | 387 | 436 | 387
11 | O=C(Nc1ncc(SCCN2CCCC2)s1)[C@]1(c2ccc([S+](=O)([O-])C3CC3)cc2)C[C@H]1C1CCCCC1 | 13.2 µM | 26.3 µM | 10.5 µM | 442 | 507 | 437
12 | Cc1cc(Nc2ncc3c(n2)N(C)C(=O)N(c2cc(NC(=O)c4cccc(C(F)(F)F)c4)ccc2C)C3)n(C)n1 | 11.8 µM | 2.63 µM | 7.42 µM | 468 | 483 | 512
13 | O=C(c1ccc(F)c(F)c1Nc1ccc(I)cc1F)N1CC(O)([C@@H]2CCCCN2)C1 | 6.61 µM | 3.32 µM | 10.5 µM | 308 | 299 | 371
14 | COC1=CC2=NC=CC(=C2C=C1)OC3=CN=C(NC(=O)C/4=C(C)/N(CC(C)(C)O)N(C4=O)C5=CC=CC=C5)C=C3 | 23.5 µM | 18.6 µM | 14.8 µM | 354 | 350 | 369
15 | CN(C)c1cc2c(cc1Sc1nc3c(N)nccc3n1CCNCC(C)(C)C)OCO2 | 2.95 µM | 2.95 µM | 2.35 µM | 391 | 499 | 467
16 | Nc1ncnc2c1c(-c1cnc3[nH]ccc3c1)nn2C1CCCC1 | 5.9 µM | 13.2 µM | 5.9 µM | 395 | 338 | 414
17 | CN(C)CCOc1ccc(-c2nc(-c3ccncc3)c(-c3ccc4c(c3)CC/C4=N\O)[nH]2)cc1 | 16.6 µM | 20.9 µM | 14.8 µM | 398 | 521 | 440
18 | Cc1n[nH]c2ccc(-c3cncc(OC[C@@H](N)Cc4c[nH]c5ccccc45)c3)cc12 | 1.66 µM | 2.09 µM | 2.95 µM | 318 | 360 | 351
19 | COC1=C(OC)C=C\2C(=C1)C(=O)N(CCCNCCO)\C3=C2C(=O)C4=C3C=C5OCOC5=C4 | 5.9 µM | 4.17 µM | 7.42 µM | 364 | 396 | 407

Row | SMILES | AC50 viability (CU-ACC1 [1]) | AC50 viability (CU-ACC2 [2]) | AC50 viability (NCI-H295R [3]) | area under concentration-response curve (CU-ACC1 [4]) | area under concentration-response curve (CU-ACC2 [5]) | area under concentration-response curve (NCI-H295R [6])
20 | CN(C)C/C=C/C(=O)Nc1ccc(C(=O)Nc2cccc(Nc3ncc(Cl)c(-c4c[nH]c5ccccc45)n3)c2)cc1 | 0.661 µM | 0.332 µM | 1.48 µM | 363 | 275 | 406
21 | CC1=C2N=C([NH]C2=CC(=C1)N3CCOCC3)\C4=C(NC[C@@H](O)C5=CC=CC(=C5)Cl)\C=C/NC4=O | 0.00331 µM | 0.833 µM | 0.468 µM | 342 | 277 | 303
22 | C[C@H]1COCCN1c1cc(C2([S+](=O)([O-])C3CC3)CC2)nc(-c2ccc(NC(=S)NCCO)cc2)n1 | 0.295 µM | 0.525 µM | 0.661 µM | 325 | 394 | 366
23 | C[S+](=O)([O-])N1CCC(NC(=O)c2[nH]ncc2NC(=O)c2c(Cl)cccc2Cl)CC1 | 7.42 µM | 2.63 µM | 14.8 µM | 428 | 488 | 426
24 | CC(=O)Nc1ccc([C@H](C)C(=O)Nc2ncc(C(C)C)s2)cc1 | 9.34 µM | 5.25 µM | 18.6 µM | 448 | 376 | 485
25 | CN(C)C/C=C/C(=O)Nc1ccc(C(=O)N2CCC[C@@H](Nc3ncc(Cl)c(-c4c[nH]c5ccccc45)n3)C2)cc1 | 5.25 µM | 2.63 µM | 14.8 µM | 399 | 358 | 489
26 | c1ccc(Cn2c(-c3ccc(OCC(C4CCNCC4)n4c(-c5ccccc5)nc5ccccc54)cc3)nc3ccccc32)cc1 (configuration not stated) | 11.8 µM | 11.8 µM | 9.34 µM | 387 | 391 | 363
27 | Cc1ccc(-c2cc(C(F)(F)F)nn2-c2ccc([S+](N)(=O)[O-])cc2)cc1 | 10.5 µM | 10.5 µM | 9.34 µM | 268 | 261 | 271
28 | Fc1ccc(C(OCCN2CCN(CCCc3ccccc3)CC2)c2ccc(F)cc2)cc1 | 16.6 µM | 18.6 µM | 14.8 µM | 471 | 490 | 423
29 | C[C@@H]1COCCN1c1cc(-c2ccnn2C)c2ccnc(-c3ccn[nH]3)c2n1 | 0.742 µM | 6.61 µM | 1.32 µM | 388 | 399 | 415
30 | COC(=O)N[C@H](C(=O)N1CCC[C@H]1c1ncc(-c2ccc(-c3ccc(-c4cnc([C@@H]5CCCN5C(=O)[C@@H](NC(=O)OC)C(C)C)[nH]4)cc3)cc2)[nH]1)C(C)C | 18.6 µM | 23.5 µM | 23.5 µM | 506 | 561 | 508
31 | COc1cccc2c1C(=O)c1c(O)c3c(c(O)c1C2=O)C[C@@](O)(/C(CO)=N/NC(=O)CCCCCN1C(=O)C=CC1=O)C[C@@H]3O[C@H]1C[C@H](N)[C@H](O)[C@H](C)O1 | 20.9 µM | 18.6 µM | 18.6 µM | 356 | 539 | 492
32 | CC(C)c1cc(C(=O)N2Cc3ccc(CN4CCN(C)CC4)cc3C2)c(O)cc1O | 2.35 µM | 0.833 µM | 3.72 µM | 371 | 445 | 445
33 | C[C@@H]1CC[C@@]2(OC1)O[C@H]3C[C@H]4[C@@H]5C/C=C6/C[C@H](CC[C@]6(C)[C@H]5CC[C@]4(C)[C@H]3[C@@H]2C)O[C@@H]7O[C@H](CO)[C@@H](O[C@@H]8O[C@@H](C)[C@H](O)[C@@H](O)[C@H]8O)[C@H](O)[C@H]7O[C@@H]9O[C@@H](C)[C@H](O)[C@@H](O)[C@H]9O | 4.68 µM | 7.42 µM | 1.18 µM | 446 | 524 | 386
34 | CC1(N2CCC(n3c([C@@H]4CCCNC4)nc4ccccc43)CC2)CCCCCCC1 | 10.5 µM | 13.2 µM | 11.8 µM | 470 | 562 | 439
35 | Cn1cc(CNCC2CCN(c3ncc(C(=O)NO)cn3)CC2)c2ccccc21 | 0.661 µM | 0.417 µM | 0.661 µM | 325 | 347 | 443
36 | C=CC(=O)Nc1cccc(Nc2nc(Nc3ccc(NC4CN(CCF)C4)cc3OC)ncc2C(F)(F)F)c1 | 9.34 µM | 14.8 µM | 8.33 µM | 398 | 386 | 446
37 | O=C(NO)c1cnc(NC2(c3ccccc3)CC2)nc1 | 11.8 µM | 16.6 µM | 5.25 µM | 423 | 499 | 465
